{"source": "paper PMC5399312", "about": "(Journal of Experimental & Clinical Cancer Research : CR, 2017)", "key": {"[1]": {"test_system": "p-AMPKα in SW480 cells", "test": "Western blot analysis", "type": "cell-based, human", "settings": "75, 150 and 300 μM", "experimental": "The harvested cells were lysed with radioimmunoprecipitation assay (RIPA) buffer (Beyotime, China). Insoluble debris was removed by centrifugation and the concentration of total proteins was determined using BCA Protein Assay Kit (Beyotime, China). Then lysate protein (20-40 μg) was subjected to 10% SDS-PAGE and electrophoretically transferred to polyvinylidene difluoride membranes (PVDF) (Millipore, USA). […] Protein bands were visualized using an enhanced chemiluminescence reagent (ECL Plus) (GE Healthcare, USA) after hybridization with a HRP conjugated secondary antibody. All experiments were performed in triplicate and analyzed by optical density."}, "[2]": {"test_system": "SW480 cells xenograft", "settings": "for decrease of size and weight of tumors: 16 days, versus vehicle", "experimental": "All animal experiments were performed in accordance with the Guide for the Care and Use of Laboratory Animals of Tongji Medical College, Huazhong University of Science and Technology and approved by the Ethics Committee. CB-17/ SCID mice (male, 4 weeks old) were purchased from Beijing HFK Bioscience CO., LTD (Beijing, China). SW480 cells were inoculated subcutaneously (3 × 10^6 cells) into the left flank of each mouse. […] The dose volume was 0.1 mL/10 g body weight, and the weights of mice were recorded every day. Meanwhile, the tumor volumes were measured with vernier calipers and calculated by the following formula: (A × B^2)/2, where A was length and B was width of the two-dimension tumor. After animals were sacrificed, tumor weights were measured. The inhibition ratio (%) was calculated using the following equation: I% = 100% × [Wtumor (vehicle) − Wtumor (treated)]/Wtumor (vehicle)"}, "[3]": {"test_system": "SW480 cells", "test": "Flow cytometric analysis for apoptosis (Annexin-V/PI)", "type": "cell-based, human", "settings": "48 h, control 0.7%", "experimental": "Then the cells were harvested, washed twice with ice-cold PBS, and mixed in 100 μL of 1× binding buffer (10 mM HEPES/ NaOH, pH 7.4, 140 mM NaCl, 2.5 mM CaCl2). After culturing for 15 min at room temperature in Annexin-V/PI double staining liquid (Nanjing KeyGen Biotech. Inc.), the cells were examined by flow cytometry (BD Biosciences, FACSCalibur)."}, "[4]": {"test_system": "SW480 xenograft tumor tissues", "test": "TUNEL and H&E staining assay", "type": "in vivo", "settings": "versus vehicle control", "experimental": "Apoptosis of tumor tissues was detected by terminal deoxynucleotidyl transferase (TdT)-mediated dUTP-biotin nick end labeling (TUNEL) stain, using an In Situ Cell Death Detection Kit (Roche, Switzerland). The hematoxylin-eosin (H&E) staining was performed to observe the pathological changes in different groups."}, "[5]": {"molecular_target": "T1, HK2 (Homo sapiens, UniProt P52789)", "T1 construct": "made in house; host or cells: E. coli BL21 (DE3)", "T1 sequence (P52789 1-917)": "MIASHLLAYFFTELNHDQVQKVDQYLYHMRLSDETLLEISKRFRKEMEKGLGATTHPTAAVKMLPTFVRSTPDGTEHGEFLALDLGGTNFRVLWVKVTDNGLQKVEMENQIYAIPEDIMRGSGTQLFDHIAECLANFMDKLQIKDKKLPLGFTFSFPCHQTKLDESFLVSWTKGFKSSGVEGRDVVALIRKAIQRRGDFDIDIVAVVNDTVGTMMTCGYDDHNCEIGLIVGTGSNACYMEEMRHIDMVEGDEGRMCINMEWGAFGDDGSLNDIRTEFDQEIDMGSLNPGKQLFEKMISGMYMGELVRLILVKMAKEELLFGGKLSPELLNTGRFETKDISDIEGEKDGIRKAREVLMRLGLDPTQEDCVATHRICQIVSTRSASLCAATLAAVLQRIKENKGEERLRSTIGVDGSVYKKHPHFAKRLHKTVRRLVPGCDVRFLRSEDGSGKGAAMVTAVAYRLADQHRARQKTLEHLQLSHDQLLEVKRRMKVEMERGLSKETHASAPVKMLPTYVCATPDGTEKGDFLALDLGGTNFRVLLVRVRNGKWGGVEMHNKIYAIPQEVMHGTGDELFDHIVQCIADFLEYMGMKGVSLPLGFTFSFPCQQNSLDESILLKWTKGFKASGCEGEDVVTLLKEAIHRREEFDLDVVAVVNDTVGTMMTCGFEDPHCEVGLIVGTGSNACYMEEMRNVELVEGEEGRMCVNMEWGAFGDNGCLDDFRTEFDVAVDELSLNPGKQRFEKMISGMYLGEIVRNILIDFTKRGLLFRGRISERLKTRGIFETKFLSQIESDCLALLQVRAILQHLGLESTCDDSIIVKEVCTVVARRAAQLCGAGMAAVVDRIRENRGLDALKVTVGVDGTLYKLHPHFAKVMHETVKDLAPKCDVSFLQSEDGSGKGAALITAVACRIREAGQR", "test": "In vitro enzyme inhibition assay (G6P-DH coupled, NADH 340 nm)", "type": "biochemical", "settings": "recombinant HK2; n.i means no enzyme inhibition; read-out: Enzyme IC50", "experimental": "Then 85 μL assay mix containing 100 mM Tris HCl pH 8.0, 5 mM MgCl2, 200 mM Glucose, 0.8 mM ATP, 1 mM NAD^+, 0.25 Units of G6P-DH, was added."}, "[6]": {"test_system": "SW480 cells", "test": "Glucose uptake assay", "type": "cell-based, human", "settings": "48 h; versus untreated or Met treated control", "experimental": "The Glucose Assay Kit (Rsbio, Shanghai, China) was used to analyse the glucose uptake. After 48 h drug treatment, media was collected and diluted within water. The amount of glucose in the media was then detected. Glucose uptake was determined by subtracting the amount of glucose in each sample from the total amount of glucose in the media (without cells). Met was used as a standard control in this assay."}, "[7]": {"test_system": "SW480 cells", "test": "Soft agar colony formation assay", "type": "cell-based, human", "settings": "100 μM", "experimental": "About 0.6% agar was poured into the six-well plate. […] Media was changed every three days, and colonies were further observed for 10 days. Colonies were then stained with 0.01% of crystal violet staining solution for 2 h."}}, "note": "Where two headings read alike, the source gives them in different places.", "data": [{"smiles": "NC(CO)C(=O)NNCc1ccc(O)c(O)c1O", "note": "(stereo not drawn) [Benz, Benserazide]", "values": [{"measurement": "phosphorylation of AMPKα", "setting": "[1]", "value": "increased"}, {"measurement": "decrease of size and weight of tumors", "setting": "[2]; 300 mg/Kg per day i.p.", "value": 30.1, "unit": "%"}, {"measurement": "decrease of size and weight of tumors", "setting": "[2]; 600 mg/Kg per day i.p.", "value": 60.3, "unit": "%"}, {"measurement": "toxicity in mice", "setting": "[2]; mouse, in vivo", "value": "no toxicity shown"}, {"measurement": "body weight and histomorphology", "setting": "[2]; tumor-bearing mice, daily i.p. 16 days", "value": "no remarkable loss of body weight and change of histomorphology"}, {"measurement": "apoptotic death", "setting": "[3]; 75 μM", "value": 10.4, "unit": "%"}, {"measurement": "apoptotic death", "setting": "[3]; 150 μM", "value": 22.5, "unit": "%"}, {"measurement": "apoptotic death", "setting": "[3]; 300 μM", "value": 44.1, "unit": "%"}, {"measurement": "tumor apoptosis and pathological changes (TUNEL, H&E)", "setting": "[4]", "value": "induced tumor apoptosis and pathological changes"}, {"measurement": "IC50", "setting": "[5]", "value": "5.52 ± 0.17", "unit": "µM"}, {"measurement": "glucose uptake", "setting": "[6]", "value": "significantly lower"}, {"measurement": "anchorage-independent growth (colony formation)", "setting": "[7]", "value": "dramatically reduced the ability to form colonies"}]}]}
